According to ChEMBL document CHEMBL4613318, “Benzofuran-Based Carboxylic Acids as Carbonic Anhydrase Inhibitors and Antiproliferative Agents against Breast Cancer” (ACS Med Chem Lett, 2020):

Key:
Carbonic anhydrase 12 = Carbonic anhydrase 12 (Homo sapiens, UniProt O43570); assay: Inhibition of recombinant human carbonic anhydrase 12 preincubated with enzyme for 15 mins by phenol red dye based stopped flow CO2 hydration assay
Carbonic anhydrase 1 = Carbonic anhydrase 1 (Homo sapiens, UniProt P00915); assay: Inhibition of recombinant human carbonic anhydrase 1 preincubated with enzyme for 15 mins by phenol red dye based stopped flow CO2 hydration assay
Homo sapiens [1] = organism: Homo sapiens; assay: (§1) Selectivity index, ratio of Ki for recombinant human carbonic anhydrase 1 preincubated with enzyme for 15 mins by phenol red dye based stopped flow CO2 hydration assay to Ki for recombinant human carbonic anhydrase 12 preincubated with enzyme for 15 mins by phenol red dye based stopped flow CO2 hydration assay
Carbonic anhydrase 9 = Carbonic anhydrase 9 (Homo sapiens, UniProt Q16790)
Description: Inhibition of recombinant human carbonic anhydrase 9 preincubated with enzyme for 15 mins by phenol red dye based stopped flow CO2 hydration assay

Homo sapiens [2] = organism: Homo sapiens; assay: as §1, with “9” for “12”
Carbonic anhydrase 2 = Carbonic anhydrase 2 (Homo sapiens, UniProt P00918); assay: Inhibition of recombinant human carbonic anhydrase 2 preincubated with enzyme for 15 mins by phenol red dye based stopped flow CO2 hydration assay
Homo sapiens [3] = organism: Homo sapiens; assay: as §1, with “carbonic anhydrase 2 preincubated with” for “carbonic anhydrase 1 preincubated with”
Homo sapiens [4] = organism: Homo sapiens; assay: as §1, with “anhydrase 2” for “anhydrase 1”, “anhydrase 9” for “anhydrase 12”
MCF7 = assay: Antiproliferative activity against human MCF7 cells assessed as reduction in cell viability incubated for 48 hrs by SRB assay; type: functional, cell-based; conditions: MCF7, 48 h
MDA-MB-231 = assay: cells; conditions: Homo sapiens, MDA-MB-231, 48 h

Chain of Carbonic anhydrase 12 (O43570 whole entry): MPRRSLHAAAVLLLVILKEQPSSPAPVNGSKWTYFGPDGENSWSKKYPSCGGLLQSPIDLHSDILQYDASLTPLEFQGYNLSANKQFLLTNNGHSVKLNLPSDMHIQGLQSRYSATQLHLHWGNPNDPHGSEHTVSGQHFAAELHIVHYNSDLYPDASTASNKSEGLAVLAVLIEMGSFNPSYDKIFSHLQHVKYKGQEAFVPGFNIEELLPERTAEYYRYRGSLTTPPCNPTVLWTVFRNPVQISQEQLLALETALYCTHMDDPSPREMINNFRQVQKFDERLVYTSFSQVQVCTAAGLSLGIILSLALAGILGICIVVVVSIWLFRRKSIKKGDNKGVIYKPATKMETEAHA
Chain of Carbonic anhydrase 1 (P00915 whole entry): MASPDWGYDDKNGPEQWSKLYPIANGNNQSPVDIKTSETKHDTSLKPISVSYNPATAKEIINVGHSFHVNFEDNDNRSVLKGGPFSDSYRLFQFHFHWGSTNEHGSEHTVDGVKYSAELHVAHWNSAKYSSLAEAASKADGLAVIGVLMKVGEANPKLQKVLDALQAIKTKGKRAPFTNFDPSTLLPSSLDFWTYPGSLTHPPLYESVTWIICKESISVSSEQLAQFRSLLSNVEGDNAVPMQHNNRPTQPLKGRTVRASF

## Cc1c(NC(=O)Nc2ccccc2C(=O)O)oc2ccccc12
Carbonic anhydrase 12
  Ki: 3.4 µM
Carbonic anhydrase 1
  Ki: > 100 µM
Homo sapiens [1]
  Ratio Ki: > 29
Carbonic anhydrase 9
  Ki: 1.6 µM
Homo sapiens [2]
  Ratio Ki: > 63
Carbonic anhydrase 2
  Ki: 7.9 µM
Homo sapiens [3]
  Ratio Ki: 2
Homo sapiens [4]
  Ratio Ki: 5

## O=C(Nc1cccc(C(=O)O)c1)Nc1cc2cc(Br)ccc2o1
Carbonic anhydrase 12
  Ki: 2.3 µM
Carbonic anhydrase 1
  Ki: 33.2 µM
Carbonic anhydrase 9
  Ki: 0.79 µM
Carbonic anhydrase 2
  Ki: 37 µM

## Cc1c(NC(=O)Nc2cccc(C(=O)O)c2)oc2ccccc12
Carbonic anhydrase 12
  Ki: 2.2 µM
Carbonic anhydrase 1
  Ki: 32.8 µM
Carbonic anhydrase 9
  Ki: 0.91 µM
Carbonic anhydrase 2
  Ki: 10.1 µM

## O=C(O)CNC(=O)c1ccc(NC(=O)Nc2cc3cc(Br)ccc3o2)cc1
Carbonic anhydrase 12
  Ki: 10.1 µM
Carbonic anhydrase 1
  Ki: > 100 µM
Homo sapiens [1]
  Ratio Ki: 10
Carbonic anhydrase 9
  Ki: 19 µM
Homo sapiens [2]
  Ratio Ki: 5
Carbonic anhydrase 2
  Ki: 67.1 µM
Homo sapiens [3]
  Ratio Ki: 7
Homo sapiens [4]
  Ratio Ki: 4

## Cc1c(NC(=O)Nc2ccc(C(=O)NCC(=O)O)cc2)oc2ccccc12
Carbonic anhydrase 12
  Ki: 2.7 µM
Carbonic anhydrase 1
  Ki: 64.7 µM
Homo sapiens [1]
  Ratio Ki: 24
Carbonic anhydrase 9
  Ki: 35.7 µM
Homo sapiens [2]
  Ratio Ki: 2
Carbonic anhydrase 2
  Ki: 25.8 µM
Homo sapiens [3]
  Ratio Ki: 10

## Cc1c(NC(=O)Nc2ccc(C(=O)O)cc2)oc2ccccc12
Carbonic anhydrase 12
  Ki: 0.88 µM
Carbonic anhydrase 1
  Ki: 4.5 µM
Homo sapiens [1]
  Ratio Ki: 5
Carbonic anhydrase 9
  Ki: 5.1 µM
Carbonic anhydrase 2
  Ki: 3.1 µM
Homo sapiens [3]
  Ratio Ki: 4

## COc1cccc2c1C(=O)c1c(O)c3c(c(O)c1C2=O)C[C@@](O)(C(=O)CO)C[C@@H]3O[C@H]1C[C@H](N)[C@H](O)[C@H](C)O1 [DOXORUBICIN]
MCF7
  IC50: 1.43 µM
MDA-MB-231
  IC50: 2.36 µM

## O=C(Nc1cc2cc(Br)ccc2o1)Nc1ccccc1C(=O)O
Carbonic anhydrase 12
  Ki: 8 µM
Carbonic anhydrase 1
  Ki: > 100 µM
Homo sapiens [1]
  Ratio Ki: 13
Carbonic anhydrase 9
  Ki: 5.1 µM
Homo sapiens [2]
  Ratio Ki: 20
Carbonic anhydrase 2
  Ki: 4.1 µM

## O=C(Nc1ccc(C(=O)O)cc1)Nc1cc2cc(Br)ccc2o1
Carbonic anhydrase 12
  Ki: 1.6 µM
Carbonic anhydrase 1
  Ki: 20.5 µM
Carbonic anhydrase 9
  Ki: 0.56 µM
Carbonic anhydrase 2
  Ki: 7.2 µM
